According to patent US20060110456A1, “Method for biocidal and/or biostatic treatment and compositions therefor” (NATIONAL UNIVERSITY OF SINGAPORE, priority 2004, published 2006):

System: marine bacteria (26 strains)
Assay: Disk inhibition assay
Assay type: cell-based, marine bacteria isolated from Singapore fouling communities
Details: for zone of inhibition at 2 µg/disc: 2 μg per disc; for zone of inhibition at 10 µg/disc: 10 μg per disc; for zone of inhibition at 5 µg/disc: 5 μg per disc; for zone of inhibition at 15 µg/disc: 15 μg per disc
Protocol: Preparation of Drugs onto Disks for Assay
The non-antibiotic pharmaceuticals of Table 1 were prepared in the following way. A tablet with a known amount of active ingredient (as stated in the product information) was ground in a mortar and pestle and suspended in sterile deionized water to a concentration of 2 mg ml^−1. These samples were sonicated for at least 1 min. […] The two halves of the capsule were separated and the powder released straight into a bottle and suitable amount of water added to make a concentration of 2 mg ml^−1.
As a comparison to the pharmaceuticals, to determine the susceptibility of the bacterial isolates to conventional antibiotics, commercially available antibiotic discs were used. Antibiotic discs (Oxoid® CT series) containing Ampicillin [Amp] (2 and 10 μg), Erythromycin [Ery] (5 and 15 μg), Streptomycin [Str] (10 and 25 μg) and Tetracycline [Tet] (5 and 30 μg) were placed on lawns of the bacterial strains inoculated as described below.
Sterile swabs dipped into the cultures were used to inoculate Marine Agar plates with a bacterial lawn by smearing the culture over the surface. After inoculating the plates, discs with antibiotics, pharmaceuticals or control blanks were placed on each plate. Each concentration of antibiotic or pharmaceutical was tested with three replicates on three separate occasions. After the disks were placed on the agar surface, plates were incubated overnight in the dark at 30° C. After incubation, plates were examined for zones of inhibition or clearing around control and treated disks. The diameter of any zone of clearing or inhibition was measured using Vernier calipers.
The assay was repeated three times with three replicates for each concentration used, each time.

CC1(C)S[C@@H]2[C@H](NC(=O)[C@H](N)c3ccccc3)C(=O)N2[C@H]1C(=O)O [Amp, ampicillin]
zone of inhibition at 2 µg/disc (strain 1 (Rhodovulum)): 10 to 19 mm | zone of inhibition at 10 µg/disc (strain 1 (Rhodovulum)): 20 to 29 mm | zone of inhibition at 2 µg/disc (strain 2 (Erythrobacter)): < 6 mm | zone of inhibition at 10 µg/disc (strain 2 (Erythrobacter)): 10 to 19 mm | zone of inhibition at 2 µg/disc (strain 3 (Erythrobacter)): < 6 mm | zone of inhibition at 10 µg/disc (strain 3 (Erythrobacter)): < 6 mm | zone of inhibition at 2 µg/disc (strain 4 (Bacillus)): > 40 mm | zone of inhibition at 10 µg/disc (strain 4 (Bacillus)): > 40 mm | zone of inhibition at 2 µg/disc (strain 6 (Vibrio)): < 6 mm | zone of inhibition at 10 µg/disc (strain 6 (Vibrio)): < 6 mm | zone of inhibition at 2 µg/disc (strain 7 (Vibrio)): 6 to 9 mm | zone of inhibition at 10 µg/disc (strain 7 (Vibrio)): 10 to 19 mm | zone of inhibition at 2 µg/disc (strain 8 (Bacillus)): 20 to 29 mm | zone of inhibition at 10 µg/disc (strain 8 (Bacillus)): 30 to 39 mm | zone of inhibition at 2 µg/disc (strain 9 (Bacillus)): 10 to 19 mm | zone of inhibition at 10 µg/disc (strain 9 (Bacillus)): 30 to 39 mm | zone of inhibition at 2 µg/disc (strain 10 (Halobacillus)): 30 to 39 mm | zone of inhibition at 10 µg/disc (strain 10 (Halobacillus)): > 40 mm | zone of inhibition at 2 µg/disc (strain 11 (Pseudomonas)): 20 to 29 mm | zone of inhibition at 10 µg/disc (strain 11 (Pseudomonas)): 30 to 39 mm | zone of inhibition at 2 µg/disc (strain 12 (Gordonia)): < 6 mm | zone of inhibition at 10 µg/disc (strain 12 (Gordonia)): < 6 mm | zone of inhibition at 2 µg/disc (strain 13 (Bacillus)): 10 to 19 mm | zone of inhibition at 10 µg/disc (strain 13 (Bacillus)): 10 to 19 mm | zone of inhibition at 2 µg/disc (strain 14 (Vibrio)): 10 to 19 mm | zone of inhibition at 10 µg/disc (strain 14 (Vibrio)): 20 to 29 mm | zone of inhibition at 2 µg/disc (strain 16 (Pseudoalteromonas)): 6 to 9 mm | zone of inhibition at 10 µg/disc (strain 16 (Pseudoalteromonas)): 10 to 19 mm | zone of inhibition at 2 µg/disc (strain 17 (Gordonia)): < 6 mm | zone of inhibition at 10 µg/disc (strain 17 (Gordonia)): < 6 mm | zone of inhibition at 2 µg/disc (strain 18 (Microbacterium)): 20 to 29 mm | zone of inhibition at 10 µg/disc (strain 18 (Microbacterium)): 20 to 29 mm | zone of inhibition at 2 µg/disc (strain 19 (Erythrobacter)): 20 to 29 mm | zone of inhibition at 10 µg/disc (strain 19 (Erythrobacter)): 20 to 29 mm | zone of inhibition at 2 µg/disc (strain 20): < 6 mm | zone of inhibition at 10 µg/disc (strain 20): 20 to 29 mm | zone of inhibition at 2 µg/disc (strain 21): < 6 mm | zone of inhibition at 10 µg/disc (strain 21): < 6 mm | zone of inhibition at 2 µg/disc (strain 22): 10 to 19 mm | zone of inhibition at 10 µg/disc (strain 22): 10 to 19 mm | zone of inhibition at 2 µg/disc (strain 24): 30 to 39 mm | zone of inhibition at 10 µg/disc (strain 24): > 40 mm | zone of inhibition at 2 µg/disc (strain 26): 10 to 19 mm | zone of inhibition at 10 µg/disc (strain 26): 10 to 19 mm | zone of inhibition at 2 µg/disc (strain 27): 20 to 29 mm | zone of inhibition at 10 µg/disc (strain 27): 30 to 39 mm | zone of inhibition at 2 µg/disc (strain 28): 6 to 9 mm | zone of inhibition at 10 µg/disc (strain 28): 10 to 19 mm | zone of inhibition at 2 µg/disc (strain 29): 30 to 39 mm | zone of inhibition at 10 µg/disc (strain 29): 30 to 39 mm | zone of inhibition at 2 µg/disc (strain 30): 30 to 39 mm | zone of inhibition at 10 µg/disc (strain 30): 20 to 29 mm

CC[C@H]1OC(=O)[C@H](C)[C@@H](O[C@H]2C[C@@](C)(OC)[C@@H](O)[C@H](C)O2)[C@H](C)[C@@H](O[C@@H]2O[C@H](C)C[C@H](N(C)C)[C@H]2O)[C@](C)(O)C[C@@H](C)C(=O)[C@H](C)[C@@H](O)[C@]1(C)O [Ery, erythromycin]
Effectiveness of antibiotics against strains of marine bacteria (commercial antibiotic discs, in words): effective against most of the strains of marine bacteria | zone of inhibition at 5 µg/disc (strain 1 (Rhodovulum)): < 6 mm | zone of inhibition at 15 µg/disc (strain 1 (Rhodovulum)): < 6 mm | zone of inhibition at 5 µg/disc (strain 2 (Erythrobacter)): < 6 mm | zone of inhibition at 15 µg/disc (strain 2 (Erythrobacter)): 20 to 29 mm | zone of inhibition at 5 µg/disc (strain 3 (Erythrobacter)): 10 to 19 mm | zone of inhibition at 15 µg/disc (strain 3 (Erythrobacter)): 20 to 29 mm | zone of inhibition at 5 µg/disc (strain 4 (Bacillus)): > 40 mm | zone of inhibition at 15 µg/disc (strain 4 (Bacillus)): 30 to 39 mm | zone of inhibition at 5 µg/disc (strain 6 (Vibrio)): < 6 mm | zone of inhibition at 15 µg/disc (strain 6 (Vibrio)): 10 to 19 mm | zone of inhibition at 5 µg/disc (strain 7 (Vibrio)): 10 to 19 mm | zone of inhibition at 15 µg/disc (strain 7 (Vibrio)): 10 to 19 mm | zone of inhibition at 5 µg/disc (strain 8 (Bacillus)): 20 to 29 mm | zone of inhibition at 15 µg/disc (strain 8 (Bacillus)): 30 to 39 mm | zone of inhibition at 5 µg/disc (strain 9 (Bacillus)): 30 to 39 mm | zone of inhibition at 15 µg/disc (strain 9 (Bacillus)): 30 to 39 mm | zone of inhibition at 5 µg/disc (strain 10 (Halobacillus)): 30 to 39 mm | zone of inhibition at 15 µg/disc (strain 10 (Halobacillus)): > 40 mm | zone of inhibition at 5 µg/disc (strain 11 (Pseudomonas)): 20 to 29 mm | zone of inhibition at 15 µg/disc (strain 11 (Pseudomonas)): 20 to 29 mm | zone of inhibition at 5 µg/disc (strain 12 (Gordonia)): < 6 mm | zone of inhibition at 15 µg/disc (strain 12 (Gordonia)): 10 to 19 mm | zone of inhibition at 5 µg/disc (strain 13 (Bacillus)): 20 to 29 mm | zone of inhibition at 15 µg/disc (strain 13 (Bacillus)): 20 to 29 mm | zone of inhibition at 5 µg/disc (strain 14 (Vibrio)): < 6 mm | zone of inhibition at 15 µg/disc (strain 14 (Vibrio)): 10 to 19 mm | zone of inhibition at 5 µg/disc (strain 16 (Pseudoalteromonas)): 10 to 19 mm | zone of inhibition at 15 µg/disc (strain 16 (Pseudoalteromonas)): 6 to 9 mm | zone of inhibition at 5 µg/disc (strain 17 (Gordonia)): > 40 mm | zone of inhibition at 15 µg/disc (strain 17 (Gordonia)): > 40 mm | zone of inhibition at 5 µg/disc (strain 18 (Microbacterium)): 6 to 9 mm | zone of inhibition at 15 µg/disc (strain 18 (Microbacterium)): 10 to 19 mm | zone of inhibition at 5 µg/disc (strain 19 (Erythrobacter)): 20 to 29 mm | zone of inhibition at 15 µg/disc (strain 19 (Erythrobacter)): 20 to 29 mm | zone of inhibition at 5 µg/disc (strain 20): 10 to 19 mm | zone of inhibition at 15 µg/disc (strain 20): 20 to 29 mm | zone of inhibition at 5 µg/disc (strain 21): 20 to 29 mm | zone of inhibition at 15 µg/disc (strain 21): 20 to 29 mm | zone of inhibition at 5 µg/disc (strain 22): 10 to 19 mm | zone of inhibition at 15 µg/disc (strain 22): 30 to 39 mm | zone of inhibition at 5 µg/disc (strain 24): 20 to 29 mm | zone of inhibition at 15 µg/disc (strain 24): 20 to 29 mm | zone of inhibition at 5 µg/disc (strain 26): 20 to 29 mm | zone of inhibition at 15 µg/disc (strain 26): 20 to 29 mm | zone of inhibition at 5 µg/disc (strain 27): 20 to 29 mm | zone of inhibition at 15 µg/disc (strain 27): 20 to 29 mm | zone of inhibition at 5 µg/disc (strain 28): 20 to 29 mm | zone of inhibition at 15 µg/disc (strain 28): 20 to 29 mm | zone of inhibition at 5 µg/disc (strain 29): 30 to 39 mm | zone of inhibition at 15 µg/disc (strain 29): 20 to 29 mm | zone of inhibition at 5 µg/disc (strain 30): 20 to 29 mm | zone of inhibition at 15 µg/disc (strain 30): 20 to 29 mm
